In PMC11830387, “KIRA6 is an Effective and Versatile Mast Cell Inhibitor of IgE‐mediated Activation” (European Journal of Immunology, 2024):

Columns and labels:
LYN [1] = biological target: T1, LYN (Mus musculus, UniProt P25911); experiment: in vitro kinase assay with immunoprecipitated LYN and GST-SH3P7 substrate; assay type: biochemical
T1 construct: LYN immunoprecipitated from unstimulated BMMCs

LYN [2] = biological target: T2, LYN (Homo sapiens, UniProt P07948); experiment: MicroScale thermophoresis, supported by nanoDSF thermal shift; assay type: binding
T2 construct: recombinant human active protein kinase LYN (ProQinase, #0358-0000-1)

FYN = biological target: T3, FYN (Homo sapiens, UniProt P06241); experiment: MicroScale thermophoresis, supported by nanoDSF; assay type: binding
T3 construct: recombinant human active protein kinase FYN (ProQinase, #0352-0000-1)
T3 sequence (P06241 2-537): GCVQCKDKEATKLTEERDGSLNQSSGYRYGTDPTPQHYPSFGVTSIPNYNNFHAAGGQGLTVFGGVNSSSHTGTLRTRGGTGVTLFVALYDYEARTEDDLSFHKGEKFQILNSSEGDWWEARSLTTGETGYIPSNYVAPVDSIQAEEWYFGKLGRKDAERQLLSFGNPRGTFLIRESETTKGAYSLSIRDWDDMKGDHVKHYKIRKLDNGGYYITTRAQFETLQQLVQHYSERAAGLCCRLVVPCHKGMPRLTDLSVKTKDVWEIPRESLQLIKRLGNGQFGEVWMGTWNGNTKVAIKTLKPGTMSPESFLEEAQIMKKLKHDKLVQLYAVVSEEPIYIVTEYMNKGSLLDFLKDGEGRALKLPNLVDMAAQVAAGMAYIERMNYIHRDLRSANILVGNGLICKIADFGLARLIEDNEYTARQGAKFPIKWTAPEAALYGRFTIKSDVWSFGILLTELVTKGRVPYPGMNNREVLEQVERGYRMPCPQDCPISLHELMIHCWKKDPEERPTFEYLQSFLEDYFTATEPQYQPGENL

T2 sequence (P07948 2-512): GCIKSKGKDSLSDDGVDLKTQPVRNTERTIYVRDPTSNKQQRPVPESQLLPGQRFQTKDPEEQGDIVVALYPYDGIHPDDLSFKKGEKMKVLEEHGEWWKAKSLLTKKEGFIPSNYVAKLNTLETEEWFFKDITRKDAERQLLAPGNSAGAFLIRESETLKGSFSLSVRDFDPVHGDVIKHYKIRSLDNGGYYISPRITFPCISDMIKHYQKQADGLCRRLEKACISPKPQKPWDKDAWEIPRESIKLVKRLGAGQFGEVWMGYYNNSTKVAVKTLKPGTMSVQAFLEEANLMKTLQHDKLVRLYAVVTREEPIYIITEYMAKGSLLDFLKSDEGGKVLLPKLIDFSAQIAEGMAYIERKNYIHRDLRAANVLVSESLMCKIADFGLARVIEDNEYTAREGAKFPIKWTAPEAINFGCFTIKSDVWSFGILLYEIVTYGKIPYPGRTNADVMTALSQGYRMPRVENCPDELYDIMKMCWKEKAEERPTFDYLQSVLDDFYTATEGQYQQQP
T1 sequence (P25911 2-512): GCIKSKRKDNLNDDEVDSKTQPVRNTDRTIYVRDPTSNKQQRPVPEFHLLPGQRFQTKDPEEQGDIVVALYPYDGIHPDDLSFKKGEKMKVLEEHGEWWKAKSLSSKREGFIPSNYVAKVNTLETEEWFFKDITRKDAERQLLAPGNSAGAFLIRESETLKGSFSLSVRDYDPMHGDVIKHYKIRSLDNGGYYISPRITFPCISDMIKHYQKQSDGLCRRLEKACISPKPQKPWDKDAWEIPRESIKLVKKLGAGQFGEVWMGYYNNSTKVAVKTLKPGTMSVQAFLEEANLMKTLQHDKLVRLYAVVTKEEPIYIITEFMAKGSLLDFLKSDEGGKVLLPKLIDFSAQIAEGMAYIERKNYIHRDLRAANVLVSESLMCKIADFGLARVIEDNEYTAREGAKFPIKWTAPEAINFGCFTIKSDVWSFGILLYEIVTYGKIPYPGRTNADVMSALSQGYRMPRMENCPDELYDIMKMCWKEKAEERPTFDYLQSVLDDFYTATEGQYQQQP

In the case of `CC(C)(C)c1nc(-c2ccc(NC(=O)Nc3cccc(C(F)(F)F)c3)c3ccccc23)c2c(N)nccn12` [KIRA6], the IC50 (LYN [1]) is reported as about 0.3 µM, the Kd (LYN [2]) is reported as 3.2 ± 1.2 µM and the Kd (FYN) is reported as 8.4 ± 2.6 µM.
